Data on 25 compounds can be found in patent publication US8198311B2, “Modulators of glucocorticoid receptor, AP-1, and/or NF-κB activity and use thereof” (Bristol-Myers Squibb Company, priority 2006, dated 2012).

A word on the Ki: it is a measure of affinity in units of concentration, obtained from inhibition or displacement. For orientation: EC50 means the concentration giving half of the maximal effect.

For assay [1], the target named is T1, human full-length glucocorticoid receptor (Homo sapiens, UniProt P04150).
T1 construct: recombinantly expressed human full-length glucocorticoid receptor; purchased PanVera Co., Madison, Wis; P2816
T1 sequence (P04150 1-777): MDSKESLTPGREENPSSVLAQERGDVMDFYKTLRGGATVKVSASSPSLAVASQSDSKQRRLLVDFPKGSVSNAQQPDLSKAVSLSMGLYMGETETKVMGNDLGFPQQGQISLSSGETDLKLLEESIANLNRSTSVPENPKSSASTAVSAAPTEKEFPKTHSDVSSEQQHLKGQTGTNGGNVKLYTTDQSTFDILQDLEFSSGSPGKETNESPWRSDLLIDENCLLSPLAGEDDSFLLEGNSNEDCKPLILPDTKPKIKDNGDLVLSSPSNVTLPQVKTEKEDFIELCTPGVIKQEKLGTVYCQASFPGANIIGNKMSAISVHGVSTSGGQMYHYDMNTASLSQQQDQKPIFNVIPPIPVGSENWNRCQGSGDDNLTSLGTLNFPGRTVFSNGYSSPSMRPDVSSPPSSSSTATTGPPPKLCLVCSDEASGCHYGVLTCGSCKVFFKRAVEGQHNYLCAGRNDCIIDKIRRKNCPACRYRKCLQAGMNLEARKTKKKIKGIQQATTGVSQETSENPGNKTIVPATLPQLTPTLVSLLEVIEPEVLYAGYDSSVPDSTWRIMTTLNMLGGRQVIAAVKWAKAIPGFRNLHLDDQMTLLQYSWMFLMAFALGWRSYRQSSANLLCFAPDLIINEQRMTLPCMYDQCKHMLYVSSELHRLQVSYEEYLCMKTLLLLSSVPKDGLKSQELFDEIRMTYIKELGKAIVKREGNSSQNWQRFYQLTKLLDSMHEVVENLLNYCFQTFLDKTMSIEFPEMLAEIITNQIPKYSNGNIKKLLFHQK
Nature of the assay: Glucocorticoid Receptor Binding Assay (II), fluorescence polarization competitor kit (Fluormone GS1). Conditions: cell lysate with recombinant human full-length GR. As for the experimental part: In order to measure the binding of compounds on the glucocorticoid receptor a commercially available kit was used (Glucocorticoid receptor competitor assay kit, PanVera Co., Madison, Wis., P2816). Briefly, a cell lysate containing recombinantly expressed human full-length glucocorticoid receptor was mixed with a fluorescently labeled glucocorticoid (1 nM Fluormone GS1) in the presence or absence of test compound. After one hour at room temperature, the fluorescence polarization (FP) of the samples were measured. […] Test molecules were analyzed in the concentration range from 2.4 nM to 40 microMolar.

Assay [2] has as its system AP-1 induced transcriptional activity. Nature of the assay: Cellular Transrepressional Assay (AP-1 luciferase reporter in A549 cells, PMA-activated). Conditions: Homo sapiens, A549, 7 h, pAP-1-Luc, 10 ng/ml PMA, read-out: AP-1 (EC50, nM) (Cellular Transrepression Assay). Format: cell-based. In a few lines:
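A549 cells stably carrying a 7×AP-1-luciferase reporter, stimulated with 10 ng/ml PMA with or without compound (0.1 nM-40 μM) for 7 h. Luciferase luminescence read 10 min after reagent addition; repression is percentage decrease of PMA-alone signal, EC50 by curve fitting.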
Background: In a reporter assay the amount or activity of a reporter protein is the signal.

Assay [3] addresses T2, human glucocorticoid receptor (Homo sapiens, UniProt P04150).
T2 construct: purified human recombinant full-length glucocorticoid receptor (2 nM); purchased Invitrogen Part # 2893
T2 sequence (P04150 1-777): T1 sequence (P04150 1-777)
The experiment in a line: Glucocorticoid Receptor Binding Assay (I), fluorescence polarization competitor kit (Fluormone GS Red). Conditions: purified human recombinant full-length GR. A digest of the protocol: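 Fluorescence polarization competition: full-length recombinant human GR (2 nM) incubated with 1 nM Fluormone GS Red plus test compound (8.5E-05 to 5 μM) for 2 h at room temperature in the dark before FP read-out.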
On the technique in general: Polarisation of emitted light reports the rotation of a fluorescent probe.

In the case of `CC(C)CC(c1ccc2c(cnn2-c2ccc(F)cc2)c1)C(C)(C)CNC(=O)N(C)C` (stereo not shown) [Example 65, 3-(3-(1-(4-fluorophenyl)-1H-indazol-5-yl)-2,2,5-trimethylhexyl)-1,1-dimethylurea], the Ki in assay [1] is 1.4 nM.
For `CC(C)CC(c1ccc2c(cnn2-c2ccc(F)cc2)c1)C(C)(C)CNC(=O)N[C@@H]1c2ccccc2C[C@@H]1O` (stereo partly drawn) [Example 78, 1-(3-(1-(4-fluorophenyl)-1H-indazol-5-yl)-2,2,5-trimethylhexyl)-3-((1R,2S)-2-hydroxy-2,3-dihydro-1H-inden-1-yl)urea], the EC50 in assay [2] came to 813 nM. For the same compound, in assay [3], the Ki was determined as 2.2 nM.
The corresponding values for `CC(C)CC(c1ccc2c(cnn2-c2ccc(F)cc2)c1)C(C)(C)CNC(=O)NC1CCN(Cc2ccccc2)CC1` (stereo not shown) [Example 79, 1-(1-benzylpiperidin-4-yl)-3-(3-(1-(4-fluorophenyl)-1H-indazol-5-yl)-2,2,5-trimethylhexyl)urea] are 5000 nM and 11 nM.
The corresponding values for `CC(C)CC(c1ccc2c(cnn2-c2ccc(F)cc2)c1)C(C)(C)CNC(=O)NC(CO)Cc1ccc(Cl)cc1` (stereo not shown) [Example 80, 1-(1-(4-chlorophenyl)-3-hydroxypropan-2-yl)-3-(3-(1-(4-fluorophenyl)-1H-indazol-5-yl)-2,2,5-trimethylhexyl)urea] are 234 nM and 3 nM.
In the case of `Cc1cc(C)c(S(=O)(=O)NCC(C)(C)C(CC(C)C)c2ccc3c(cnn3-c3ccc(F)cc3)c2)c(C)c1` (stereo not shown) [Example 81, N-(3-(1-(4-fluorophenyl)-1H-indazol-5-yl)-2,2,5-trimethylhexyl)-2,4,6-trimethylbenzenesulfonamide], in assay [2], the EC50 was over 5000 nM. Besides, the Ki in assay [3] turned out to be 8.7 nM.
The corresponding values for `CC(CNS(C)(=O)=O)C(c1ccccc1)c1ccc2c(cnn2-c2ccc(F)cc2)c1` (stereo not shown) [Example 92, N-(3-(1-(4-fluorophenyl)-1H-indazol-5-yl)-2-methyl-3-phenylpropyl)methanesulfonamide] are 12 nM and 0.94 nM.
The corresponding values for `CCS(=O)(=O)NCC(C)C(c1ccccc1)c1ccc2c(cnn2-c2ccc(F)cc2)c1` (stereo not shown) [Example 93, N-(3-(1-(4-fluorophenyl)-1H-indazol-5-yl)-2-methyl-3-phenylpropyl)ethanesulfonamide] are 5.6 nM and 0.92 nM.
Regarding `CC(CNS(=O)(=O)C(C)C)C(c1ccccc1)c1ccc2c(cnn2-c2ccc(F)cc2)c1` (stereo not shown) [Example 94, N-(3-(1-(4-fluorophenyl)-1H-indazol-5-yl)-2-methyl-3-phenylpropyl)propane-2-sulfonamide], the concentration for a half-maximal effect (EC50) in assay [2] came to 12 nM. Further, the Ki in assay [3] was 0.73 nM.
The corresponding values for `CCCS(=O)(=O)NCC(C)C(c1ccccc1)c1ccc2c(cnn2-c2ccc(F)cc2)c1` (stereo not shown) [Example 95, N-(3-(1-(4-fluorophenyl)-1H-indazol-5-yl)-2-methyl-3-phenylpropyl)propane-1-sulfonamide] are 27 nM and 1.2 nM.
The corresponding values for `CC(CNS(=O)(=O)CCC(F)(F)F)C(c1ccccc1)c1ccc2c(cnn2-c2ccc(F)cc2)c1` (stereo not shown) [Example 96, 3,3,3-trifluoro-N-(3-(1-(4-fluorophenyl)-1H-indazol-5-yl)-2-methyl-3-phenylpropyl)propane-1-sulfonamide] are 58 nM and 1.6 nM.
The corresponding values for `CCC(CNS(=O)(=O)CC(F)(F)F)C(c1ccccc1)c1ccc2c(cnn2-c2ccc(F)cc2)c1` (stereo not shown) [Example 98, 2,2,2-Trifluoro-N-(2-((1-(4-fluorophenyl)-1H-indazol-5-yl)(phenyl)methyl)butyl)ethanesulfonamide] are 17 nM and 3.7 nM.
On to `CCCC(CNS(=O)(=O)CC(F)(F)F)C(c1ccccc1)c1ccc2c(cnn2-c2ccc(F)cc2)c1` (stereo not shown) [Example 99, 2,2,2-Trifluoro-N-(2-((1-(4-fluorophenyl)-1H-indazol-5-yl)(phenyl)methyl)pentyl)ethanesulfonamide], for which, in assay [2], the concentration for a half-maximal effect (EC50) was 40 nM. Besides, the Ki in assay [3] is 6.1 nM.
The corresponding values for `O=S(=O)(CC(F)(F)F)NCC(c1ccccc1)C(c1ccccc1)c1ccc2c(cnn2-c2ccc(F)cc2)c1` (stereo not shown) [Example 100, 2,2,2-Trifluoro-N-(3-(1-(4-fluorophenyl)-1H-indazol-5-yl)-2,3-diphenylpropyl)ethanesulfonamide] are 5000 nM and 18.3 nM.
Turning to `CCC(c1ccc2c(cnn2-c2ccc(F)cc2)c1)C(C)(C)CNC(=O)NC(C)(C)C` (stereo not shown) [Example 101, 1-tert-butyl-3-(3-(1-(4-fluorophenyl)-1H-indazol-5-yl)-2,2-dimethylpentyl)urea], the EC50 in assay [2] stood at 132 nM. Moreover, the Ki in assay [3] was determined as 2.1 nM.
The corresponding values for `CC(C)(C)NC(=O)NCC(C)(C)C(c1ccc2c(cnn2-c2ccc(F)cc2)c1)C1CC1` (stereo not shown) [Example 102, 1-tert-butyl-3-(3-cyclopropyl-3-(1-(4-fluorophenyl)-1H-indazol-5-yl)-2,2-dimethylpropyl)urea] are 691 nM and 8.4 nM.
The corresponding values for `CC(C)C(c1ccc2c(cnn2-c2ccc(F)cc2)c1)C(C)(C)CNC(=O)NC(C)(C)C` (stereo not shown) [Example 103, 1-tert-butyl-3-(3-(1-(4-fluorophenyl)-1H-indazol-5-yl)-2,2,4-trimethylpentyl)urea] are 349 nM and 5.9 nM.
The corresponding values for `CCCC(c1ccc2c(cnn2-c2ccc(F)cc2)c1)C(C)(C)CNC(=O)NC(C)(C)C` (stereo not shown) [Example 104, 1-tert-butyl-3-(3-(1-(4-fluorophenyl)-1H-indazol-5-yl)-2,2-dimethylhexyl)urea] are 23 nM and 2.1 nM.
Consider `C=CCC(c1ccc2c(cnn2-c2ccc(F)cc2)c1)C(C)(C)CNC(=O)NC(C)(C)C` (stereo not shown) [Example 105, 1-tert-butyl-3-(3-(1-(4-fluorophenyl)-1H-indazol-5-yl)-2,2-dimethylhex-5-enyl)urea], for which the EC50 in assay [2] stood at 77 nM. Besides, the Ki in assay [3] came out at 1.7 nM.
`CC(C)(C)NC(=O)NCC(C)(C)C(c1ccc2c(cnn2-c2ccc(F)cc2)c1)C1CCCC1` (stereo not shown) [Example 106, 1-tert-butyl-3-(3-cyclopentyl-3-(1-(4-fluorophenyl)-1H-indazol-5-yl)-2,2-dimethylpropyl)urea]: the EC50 in assay [2] came to 304 nM. Besides, the Ki in assay [3] is 3.3 nM.
As for `CC(C)(C)NC(=O)NCC(C)(C)C(CCCO)c1ccc2c(cnn2-c2ccc(F)cc2)c1` (stereo not shown) [Example 107, 1-tert-Butyl-3-(3-(1-(4-fluorophenyl)-1H-indazol-5-yl)-6-hydroxy-2,2-dimethylhexyl)urea], in assay [2], the half-maximal effective concentration (EC50) is 2020 nM. Besides, the Ki in assay [3] came to 3.1 nM.
The corresponding values for `CC(C)(C)NC(=O)NCC(C)(C)C(CC1CC1)c1ccc2c(cnn2-c2ccc(F)cc2)c1` (stereo not shown) [Example 108, 1-tert-Butyl-3-(4-cyclopropyl-3-(1-(4-fluorophenyl)-1H-indazol-5-yl)-2,2-dimethylbutyl)urea] are 8.1 nM and 1.7 nM.
With `CC(C)(CNC(=O)Nc1nccs1)C(C)(C)c1ccc2c(cnn2-c2ccc(F)cc2)c1` [Example 115, 1-(3-(1-(4-Fluorophenyl)-1H-indazol-5-yl)-2,2,3-trimethylbutyl)-3-(thiazol-2-yl)urea], the EC50 in assay [2] is over 10000 nM. Besides, in assay [3], the Ki was 16 nM.
With `CC(C)(CNC(=O)Nc1ccccn1)C(C)(C)c1ccc2c(cnn2-c2ccc(F)cc2)c1` [Example 116, 1-(3-(1-(4-fluorophenyl)-1H-indazol-5-yl)-2,2,3-trimethylbutyl)-3-(pyridin-2-yl)urea], in assay [2], the concentration giving a half-maximal response (EC50) was over 10000 nM. Also, the Ki in assay [3] turned out to be 177 nM.
With `CCNC(=O)NCC(C)(C)C(C)(C)c1ccc2c(cnn2-c2ccc(F)cc2)c1` [Example 117, 1-ethyl-3-(3-(1-(4-fluorophenyl)-1H-indazol-5-yl)-2,2,3-trimethylbutyl)urea], the EC50 in assay [2] was over 10000 nM. Moreover, the Ki in assay [3] was found to be 20 nM.
The corresponding values for `CC(C)NC(=O)NCC(C)(C)C(C)(C)c1ccc2c(cnn2-c2ccc(F)cc2)c1` [Example 118, 1-(3-(1-(4-fluorophenyl)-1H-indazol-5-yl)-2,2,3-trimethylbutyl)-3-isopropylurea] are 2800 nM and 29 nM.
